Data from patent US20210179636A1, “ANTIBACTERIAL COMPOUNDS” (priority 2016, published 2021).
≈ marks a conversion by molar mass, not a printed value.

Legend:
[1] = test system: Enterobacter cloacae NCTC 13406; assay: MIC, broth microdilution (CLSI); assay type: cell-based; settings: Enterobacter cloacae, NCTC13406; E. cloacae NCTC 13406; 16-20 h; mode of three experiments; read-out: MIC
[2] = test system: Pseudomonas aeruginosa ATCC 27853; assay: MIC, broth microdilution (CLSI); assay type: cell-based; settings: Pseudomonas aeruginosa, ATCC27853; P. aeruginosa ATCC 27853; 16-20 h; mode of three experiments; read-out: MIC
[3] = test system: Streptococcus pneumoniae ATCC 49619; assay: MIC, broth microdilution (CLSI); assay type: cell-based; settings: Streptococcus pneumoniae, ATCC49619; S. pneumoniae ATCC 49619; 16-20 h; mode of three experiments; read-out: MIC
[4] = test system: HepG2 ATCC HB-8065; assay: Human cell viability assay (CellTiter-Glo); assay type: cell-based; settings: for IC50: Homo sapiens, HepG2 cell viability, 24 h with compound, range 1-128 μg/mL; for toxicity against HepG2 human hepatic cell line (in words): summary of Table 3
Description: Compounds are assessed for potential non-specific cytotoxic effects against a human hepatic cell line (HepG2 ATCC HB-8065). HepG2 cells are seeded at 20,000 cells/well in 96-well microtitre plates in minimal essential medium (MEM) supplemented with a final concentration of 10% FBS and 1 mM sodium pyruvate. After 24 h compound dilutions are prepared in Dulbecco's minimum essential media (DMEM) supplemented with final concentrations of 0.001% FBS, 0.3% bovine albumin and 0.02% HEPES and added to cells. Compounds are tested in two-fold serial dilutions over a final concentration range of 1-128 μg/mL in a final DMSO concentration of 1% vol/vol. Chlorpromazine is used as a positive control. Cells are incubated with compound at 37° C. and 5% CO2 for a further 24 h, after which time the CellTiter-Glo reagent (Promega) is added. Luminescence is measured on a BMG Omega plate reader. Data are analysed using GraphPad Prism software to determine the concentration of compound that inhibits cell viability by fifty percent (IC50).

[5] = test system: Escherichia coli ATCC 25922; assay: MIC, broth microdilution (CLSI); assay type: cell-based; settings: Escherichia coli, ATCC25922; E. coli ATCC 25922; 16-20 h; mode of three experiments; read-out: MIC
[6] = test system: Haemophilus influenzae ATCC 49247; assay: MIC, broth microdilution (CLSI); assay type: cell-based; settings: Haemophilus influenzae, ATCC49247; H. influenzae ATCC 49247; 16-20 h; mode of three experiments; read-out: MIC
[7] = test system: Staphylococcus aureus ATCC 29213; assay: MIC, broth microdilution (CLSI); assay type: cell-based; settings: Staphylococcus aureus, ATCC29213; S. aureus ATCC 29213; 16-20 h; mode of three experiments; read-out: MIC
[8] = test system: Klebsiella pneumoniae ATCC 700603; assay: MIC, broth microdilution (CLSI); assay type: cell-based; settings: Klebsiella pneumoniae, ATCC700603; K. pneumoniae ATCC 700603; 16-20 h; mode of three experiments; read-out: MIC
[9] = test system: Acinetobacter baumannii NCTC 13420; assay: MIC, broth microdilution (CLSI); assay type: cell-based; settings: Acinetobacter baumannii, NCTC13420; A. baumannii NCTC 13420; 16-20 h; mode of three experiments; read-out: MIC
[10] = test system: E. coli NCTC 13476; assay: MIC, broth microdilution (CLSI); assay type: cell-based, Escherichia coli; settings: Escherichia coli, NCTC13476, 16-20 h, mode of three experiments, read-out: MIC
[11] = test system: Acinetobacter baumannii ATCC 19606; assay: MIC, broth microdilution (CLSI); assay type: cell-based; settings: Acinetobacter baumannii, ATCC19606; A. baumannii ATCC 19606; 16-20 h; mode of three experiments; read-out: MIC
[12] = test system: E. coli MG1655 D87G; assay type: cell-based, Escherichia coli; settings: compared to the isogenic parent strain E. coli MG1655; D87G mutation on DNA gyrase subunit GyrA
[13] = test system: E. coli MG1655 WT; assay: MIC, broth microdilution (CLSI); assay type: cell-based, Escherichia coli; settings: Escherichia coli, MG1655
[14] = test system: E. coli MG1655 S83L; assay type: cell-based, Escherichia coli; settings: compared to the isogenic parent strain E. coli MG1655; S83L mutation on DNA gyrase subunit GyrA
[15] = test system: E. coli ATCC BAA-2452; assay: MIC, broth microdilution (CLSI); assay type: cell-based, Escherichia coli; settings: Escherichia coli, 16-20 h, mode of three experiments, read-out: MIC

Row | Structure (SMILES) | MIC [1] | MIC [2] | MIC [3] | IC50 [4] | MIC [5] | MIC [6] | MIC [7] | MIC [8] | MIC [9] | MIC [10] | MIC [11] | Fold increase in MIC against E. coli MG1655 D87G [12] | MIC [13] | Fold increase in MIC against E. coli MG1655 S83L [14] | MIC [15] | toxicity against HepG2 human hepatic cell line (in words) [4]
1 | NCCCOc1ccc2ccc(=O)n(CCN3C[C@@H]4CN(c5ccc6c(n5)NC(=O)CO6)C(=O)O[C@H]4C3)c2n1 (relative stereo) [Compound 8] | > 100 µg/mL | 10 to 100 µg/mL (≈ 18.7 to 187 µM) | 1 to 10 µg/mL (≈ 1.87 to 18.7 µM) | > 100 µg/mL | 10 to 100 µg/mL (≈ 18.7 to 187 µM) | > 100 µg/mL | 1 to 10 µg/mL (≈ 1.87 to 18.7 µM) | > 100 µg/mL | > 100 µg/mL | – | – | – | – | – | – | –
2 | COc1ncc2ccc(=O)n(CCN3C[C@H]4CN(c5ccc6c(n5)NC(=O)CO6)C(=O)O[C@@H]4C3)c2n1 (relative stereo) [Compound 13, rel-(4aS*,7aR*-6-(2-{2-methoxy-7-oxo-7H,8H-pyrido[2,3-d]pyrimidin-8-yl}ethyl)-3-{3-oxo-2H,3H,4H-pyrido[3,2-b][1,4]oxazin-6-yl}-octahydropyrrolo[3,4-e][1,3]oxazin-2-one] | 10 to 100 µg/mL (≈ 20.3 to 203 µM) | 10 to 100 µg/mL (≈ 20.3 to 203 µM) | 1 to 10 µg/mL (≈ 2.03 to 20.3 µM) | 1 to 10 µg/mL (≈ 2.03 to 20.3 µM) | – | 1 to 10 µg/mL (≈ 2.03 to 20.3 µM) | < 1 µg/mL | 10 to 100 µg/mL (≈ 20.3 to 203 µM) | 10 to 100 µg/mL (≈ 20.3 to 203 µM) | – | – | – | – | – | – | –
3 | N#Cc1ccc2ccc(=O)n(CCN3CC4CN(c5ccc6c(n5)NC(=O)CO6)C(=O)O[C@@H]4C3)c2c1 (stereo in doubt) [Compound 12, 1-{2-[(4aR,7aS)-2-oxo-3-{3-oxo-2H,3H,4H-pyrido[3,2-b][1,4]oxazin-6-yl}-octahydropyrrolo[3,4-e][1,3]oxazin-6-yl]ethyl}-2-oxo-1,2-dihydroquinoline-7-carbonitrile] | 1 to 10 µg/mL (≈ 2.06 to 20.6 µM) | 1 to 10 µg/mL (≈ 2.06 to 20.6 µM) | < 1 µg/mL | > 100 µg/mL | < 1 µg/mL | < 1 µg/mL | < 1 µg/mL | 10 to 100 µg/mL (≈ 20.6 to 206 µM) | < 1 µg/mL | 1 to 10 µg/mL (≈ 2.06 to 20.6 µM) | 1 to 10 µg/mL (≈ 2.06 to 20.6 µM) | 1 fold | < 1 µg/mL | 1 fold | < 1 µg/mL | –
4 | N#Cc1ccc2ccc(=O)n(CCCN3C[C@H]4CN(c5ccc6c(n5)NC(=O)CO6)C(=O)O[C@@H]4C3)c2c1 (relative stereo) [Compound 14, rel-1-{3-[(4aS*,7aR*)-2-oxo-3-{3-oxo-2H,3H,4H-pyrido[3,2-b]1,4]oxazin-6-yl}-octahydropyrrolo[3,4-e][1,3]oxazin-6-yl]propyl}-2-oxo-1,2-dihydroquinoline-7-carbonitrile] | 1 to 10 µg/mL (≈ 2 to 20 µM) | 1 to 10 µg/mL (≈ 2 to 20 µM) | < 1 µg/mL | 10 to 100 µg/mL (≈ 20 to 200 µM) | < 1 µg/mL | < 1 µg/mL | < 1 µg/mL | 1 to 10 µg/mL (≈ 2 to 20 µM) | < 1 µg/mL | 1 to 10 µg/mL (≈ 2 to 20 µM) | 1 to 10 µg/mL (≈ 2 to 20 µM) | 2 fold | – | 4 fold | < 1 µg/mL | acceptable level of hepatic toxicity
5 | O=C1COc2ccc(N3C[C@@H]4CN(CCCn5c(=O)ccc6ccccc65)C[C@@H]4OC3=O)nc2N1 (relative stereo) [Compound 4, rel-1-{3-[(4aS*,7aR*)-2-oxo-3-{3-oxo-2H,3H,4H-pyrido[3,2-b][1,4]oxazin-6-yl}-octahydropyrrolo[3,4-e][1,3]oxazin-6-yl]propyl}-1,2-dihydroquinolin-2-one] | < 1 µg/mL | 1 to 10 µg/mL (≈ 2.1 to 21 µM) | – | > 100 µg/mL | < 1 µg/mL | – | < 1 µg/mL | 1 to 10 µg/mL (≈ 2.1 to 21 µM) | < 1 µg/mL | – | – | – | – | – | – | –
6 | C[C@H]1COc2c(N3CCN(C)CC3)c(F)cc3c(=O)c(C(=O)O)cn1c23 [LEV, levofloxacin, reference compound] | – | – | – | – | – | – | – | – | – | – | – | 8 fold | – | 8 fold | – | –
7 | O=C1COc2ccc(N3C[C@H]4CN(CCn5c(=O)ccc6ccc(OCCO)nc65)C[C@@H]4OC3=O)nc2N1 (relative stereo) [Compound 5] | 10 to 100 µg/mL (≈ 19.1 to 191 µM) | 10 to 100 µg/mL (≈ 19.1 to 191 µM) | 1 to 10 µg/mL (≈ 1.91 to 19.1 µM) | > 100 µg/mL | 10 to 100 µg/mL (≈ 19.1 to 191 µM) | 1 to 10 µg/mL (≈ 1.91 to 19.1 µM) | < 1 µg/mL | > 100 µg/mL | > 100 µg/mL | – | – | – | – | – | – | –
8 | NCCCOc1ccc2ccc(=O)n(CCCN3CC4CN(c5ccc6c(n5)NC(=O)CO6)C(=O)OC4C3)c2n1 (stereo not drawn) [Compound 6, rel-1-{3-[(4aS*,7aR*)-2-oxo-3-{3-oxo-2H,3H,4H-pyrido[3,2-b][1,4]oxazin-6-yl}-octahydropyrrolo[3,4-e][1,3]oxazin-6-yl]propyl}-7-(3-aminopropoxy)-1,2-dihydro-1,8-naphthyridin-2-one] | > 100 µg/mL | 10 to 100 µg/mL (≈ 18.2 to 182 µM) | 1 to 10 µg/mL (≈ 1.82 to 18.2 µM) | > 100 µg/mL | 1 to 10 µg/mL (≈ 1.82 to 18.2 µM) | > 100 µg/mL | 1 to 10 µg/mL (≈ 1.82 to 18.2 µM) | > 100 µg/mL | > 100 µg/mL | – | – | – | – | – | – | –
9 | COc1ncc2ccc(=O)n(CCCN3CC4CN(c5ccc6c(n5)NC(=O)CO6)C(=O)OC4C3)c2n1 (stereo not drawn) [Compound 11, rel-(4aS*,7aR*)-6-(3-{2-methoxy-7-oxo-7H,8H-pyrido[2,3-d]pyrimidin-8-yl}propyl)-3-{3-oxo-2H,3H,4H-pyrido[3,2-b][1,4]oxazin-6-yl}-octahydropyrrolo[3,4-e][1,3]oxazin-2-one] | 1 to 10 µg/mL (≈ 1.97 to 19.7 µM) | 10 to 100 µg/mL (≈ 19.7 to 197 µM) | < 1 µg/mL | 10 to 100 µg/mL (≈ 19.7 to 197 µM) | 1 to 10 µg/mL (≈ 1.97 to 19.7 µM) | < 1 µg/mL | < 1 µg/mL | 10 to 100 µg/mL (≈ 19.7 to 197 µM) | 10 to 100 µg/mL (≈ 19.7 to 197 µM) | – | – | – | – | – | – | acceptable level of hepatic toxicity
10 | COc1ccc2ccc(=O)n(CCN3CC4CN(c5ccc6c(n5)NC(=O)CO6)C(=O)OC4C3)c2n1 (stereo not drawn) [Compound 16, rel-1-{2-[(4aR*,7aR*)-2-oxo-3-{3-oxo-2H,3H,4H-pyrido[3,2-b][1,4]oxazin-6-yl}-octahydropyrrolo[3,4-e][1,3]oxazin-6-yl]ethyl}-7-methoxy-1,2-dihydro-1,8-naphthyridin-2-one] | 1 to 10 µg/mL (≈ 2.03 to 20.3 µM) | 10 to 100 µg/mL (≈ 20.3 to 203 µM) | < 1 µg/mL | > 100 µg/mL | < 1 µg/mL | < 1 µg/mL | < 1 µg/mL | 10 to 100 µg/mL (≈ 20.3 to 203 µM) | < 1 µg/mL | – | < 1 µg/mL | – | – | – | – | –
